We go through 2 compounds from patent publication US7772383B2, “Chemical PCR: Compositions for enhancing polynucleotide amplification reactions” (The Trustees of Princeton University, priority 2002, dated 2010).

This test deals with bovine brain glycolipid transfer protein (GTP) cDNA (660 bp). The experiment in a line: PCR amplification of GTP with lower denaturation/extension temperatures. The test is classed as biochemical. Conditions: for Potency: annealing 55° C., normalized: 1,5-pentanediol (95/72° C.) = 1; for Effective: concentration interval over which target band minus control is at least 50% of maximum volume. As for the experimental part:
Amplification reactions were carried out under the following general conditions. Those skilled in the art will appreciate, however, that to the extent that the conditions (set forth in this application) required for specific experiments described in this example were inconsistent with the following general conditions, limited exceptions to the following general conditions were made The general conditions were as follows: 10 Mm Tris-HCl (Ph 8.8), 50 Mm KCl, 1.5 Mm MgCl2, 0.01% (w/v) gelatin, 0.2 Um primers, 0.06 ng/ul template, 0.2 Mm each Dntp, 0.04 U/ul Taq polymerase. The templates used were bovine brain N-WASP cDNA (1518 bp), a 996 by segment of human myeloid leukocyte c-jun cDNA, a 511 by segment of human prostate-specific membrane antigen (PSM) cDNA, and bovine brain glycolipid transfer protein (GTP) cDNA (660 bp). cDNA synthesis was carried out using the FIRST-STRAND® RT-PCR kit from Stratagene on the respective mRNAs purchased from Clontech. All amplification reactions for gene were carried out using a single master batch of cDNA. Taq polymerase and dNTPs were obtained from Stratagene. Primers were obtained from Genosys. Primer melting temperatures (Tms) were calculated using the Genosys oligo calculator program. The sequences of the primers were as follows.
Polymerase chain reactions for the N-WASP gene were conducted on a ROBOCYCLER® Gradient 40 thermal cycler from Stratagene using 100 ul solutions in 600 ul thin-walled tubes. For expediency, amplification of c-jun, PSM and GTP was carried out in a ROBOCYCLER® Gradient 96 thermal cycler from Stratagene using 50 ul solutions in 200 ul thin-walled tubes. Prior to Taq polymerase addition, a hotstart protocol was carried out that consisted of an initial cycle of 95° C. for 5 minutes (11) to ensure complete first-strand separation, followed by a cycle of 54° C. for 5 minutes. Amplifications were run for 30 cycles. Denaturation was done for 1 minute at the minimum temperatures that yielded discernable amplification: 92° C. for N-WASP and 95° C. for c-jun, PSM and GTP. Extension was done at 72° C. for periods depending on target length: 2 minutes for N-WASP, 1.5 minutes for c-jun and GTP, and 1 minute for PSM. Annealings were carried out either at fixed concentrations of additives using temperature gradients of 38-56° C. for N-WASP and 44-58° C. for the other targets, or at varying concentrations of additives using fixed temperatures of 41° C. for N-WASP, 50° C. for c-jun and PSM, and 54° C. for GTP.
Amplification products were analyzed by agarose gel electrophoresis on 0.8% agarose gels in which 20 ul reaction products were loaded with 4 ul loading buffer. Gels were stained with ethidium bromide, visualized on a UV transilluminator (Fisher), and documented by photography. Densitometric quantitation of amplification products was carried out using IMAGE SCANNER® and IMAGE MASTER® software from Amersham Pharmacia. Background correction was done using the software's rolling disc method.
Two phases of investigations were carried out into the use of 62° C. extension temperature in PCR reactions. The first involved concentration gradients with 1,2-butanediol and 1,5-pentanediol employing 62° C. extension and 95° C. denaturation. The first template used was GTP. A larger range of concentrations was employed than usual in the experiments due to the anticipated increase in effective range. These concentrations were: 0.1, 0.31, 0.5, 0.6, 0.8, 0.9 and 1.1M for 1,2-butanediol and 0.01, 0.2, 0.3, 0.4, 0.5, 0.7 and 1.0M for 1,5-pentanediol. The second phase of investigation involved experiments in which the denaturation temperature was lowered to 92° C. The following concentrations were tested: 1,2-butanediol—0.1, 0.3, 0.5, 0.6, 0.7, 0.9, 1.1, 1.3, and 1.4M; 1,5-pentanediol: 0.1, 0.2, 0.3, 0.4, 0.5, 0.7, 1.0, and 1.4M. 1,2-butanediol was also tested with the more GC-rich template c-jun. The following concentrations were tested: 0.1, 0.3, 0.5, 0.7, 0.9, 1.1, 1.4M.

Setting [1] is: 92/62° C. denaturation/extension.
The mark [2] stands for this setting: 95/62° C. denaturation/extension.

As to `CCC(O)CO` (stereo not drawn) [1,2-Butanediol], the Potency turned out to be 1.50 under setting [1] and 0.88 under setting [2]. Moreover, the Effective was 0.50-1.27 (92/62° C.) and 0.10-0.82 (95/62° C.).

With `OCCCCCO` [1,5-Pentanediol], the Potency runs as follows: under setting [1], 1.97; under setting [2], 1.49. Moreover, the Effective reads like this: (92/62° C.) 0.29-0.90; (95/62° C.) 0.15-0.63. Further, the cutoff concentration (92° C. denaturation, 62° C. extension) came to 1.0 M.
